Experimental data taken from US8906865B2, “Treatment of inflammation and/or endotoxic shock” (ISIS Innovation Limited, priority 2007, dated 2014).
Non-standard residues stand in square brackets, D forms with d. Residues, ends and D or L forms follow the SMILES beside them. *: point of attachment. Sta = CC(C)C[C@H](N)[C@@H](O)CC(=O)O; Isovaleryl = CC(C)CC(=O)*; Cbz = O=C(OCc1ccccc1)*; CH2F = FC*

Key:
[1] = quoted in the discussion; cited from earlier work
[2] = test system: Murine peritoneal macrophages (PMΦ); assay: Macrophage activation assay: LPS/IFNγ-induced inflammatory cytokine expression (ELISA, Luminex); assay type: cell-based, mouse; conditions: for Effect of protease inhibitor on chemerin-mediated suppression of MΦ activation (FIG. 1F): chemerin 1 pM + protease inhibitor 1 h, then LPS/IFNγ 15 h; for Percentage inhibition of LPS/IFNγ-induced inflammatory cytokine expression: RANTES / Percentage inhibition of LPS/IFNγ-induced inflammatory cytokine expression: TNFα: PMΦ, pre-treatment 1 h (0.1 pM-100 nM), then LPS 100 ng/ml + IFNγ 20 ng/ml 15 h, optimal dose (1 pM Chemerin and C15, 100 pM C13 and C19); for Optimal dose (maximal response) for suppression of LPS/IFNγ-induced cytokine expression: macrophage activation assay; for Anti-inflammatory activity in the MΦ activation assay: peptides 0.1 pM-100 nM
Procedure: Murine peritoneal macrophages (PMθ, also referred to as PMΦ herein) were cultured under various conditions: Untreated; LPS (100 ng/ml) and IFNγ (20 ng/ml) for 15 h; Chemerin (1 pM) pre-treatment for 1 h then LPS/IFNγ for 15 h; Leupeptin (protease inhibitor; 15 mg/ml) and Chemerin (1 pM) for 1 h then LPS/IFNγ for 15 h; or Dexamethasone (positive control; 1 μM pre-treatment for 1 h then LPS/IFNγ for 15 h.
Murine PMθ were cultured under various conditions: Untreated, LPS (100 ng/ml) and IFNγ (20 ng/ml) for 15 h; Chemerin peptides (at a concentration of 1 pM-100 nM) pre-treatment for 1 h then LPS/IFNγ for 15 h. […] Experiments were performed with triplicate determinations for each treatment. Representative data from five independent experiments employing cells from different groups of C57B16/J mice are shown. p<0.01 **; p<0.001 *** relative to LPS/IFNγ treated samples.
With reference to Table 1, anti-inflammatory activity of chemerin-derived peptides—Murine PMΦ were cultured as described for FIG. 1B and were challenged with LPS (100 ng/ml) and IFNγ (20 ng/ml) for 15 h with/without pre-treatment with peptides (0.1 pM-100 nM) for 1 h. […] Peptide sequences are: C11 (P144-A154; […]), C13 (P144-S156; […]), C15 (A140-A154; […]), C19 (A138-S156; […]; Seq ID: No. 37), N19 (E23-K41; […] Seq ID No: 44) and M20 (K86-K105; […] Seq ID No. 45). Control peptides: scrambled C15 (C15-S; […]) and mutant C15 (C15-M; […]; F148A & F153A). Data represent mean percentage inhibition of cytokine production by classically activated macrophages from 4-8 independent experiments as determined by ELISA and Luminex assay.
1 ml 2% BioGEL polyacrylamide beads in sterile Phosphate-Buffered Saline (PBS) were injected intraperitoneally (ip) into C57B1/6J mice. Four days after ip BioGEL administration, mice were sacrificed by the CO, method according to Home Office guidelines. Peritoneal cavities were flushed with 10 ml sterile PBS-2 mM EDTA to harvest BioGEL-evoked/elicited cellular infiltrate. Suspensions of harvested cells were centrifuged at 1000×g for 5 mins at 4° C. The supernatants were discarded and cell pellets were resuspended in 6 mls OptiMEM medium supplemented with 2 mM Glutamine, 50 units/ml Penicillin and 50 μg/ml Streptomycin. Macrophages were quantified following incubation on ice for 5-10 mins with Turk's solution using a haemocytometer. Cell suspensions (2 mls; 1.5×10^6/well) were plated in six-well tissue culture plates (35 mm diameter: Costar, UK) and allowed to adhere for 2 hours at 37° C. in a humidified atmosphere containing 5% CO2, to isolate macrophage populations by adherence. This gave greater than 95% purity assessed by cytospinning, staining of cells with Methylene Blue and Eosin and counting based on cellular morphology. Nonadherent cells (mainly granulocytes) were discarded and wells were washed three times with sterile PBS to remove loosely adherent or dead cells. […] To determine PTX sensitivity and dependency upon proteolysis, cells were pre-incubated with PTX (200 ng/ml) or Leupeptin (15 μg/ml). Additional cells were treated with peptides alone. Supernatants were harvested and stored at −20° C. until use in Enzyme-Linked Immunosorbance Assays (ELISAs) and Luminex assays. Cells were lysed to allow extraction of total RNA by the TRIZOL method. Lysates were stored at −80° C. until RNA extraction following manufacturer's guidelines (Qiagen, RNeasy Mini Prep Kit).
RANTES, Tumour necrosis factor (TNFα) and CCL9 concentrations in cell supernatants were assessed by ELISA. IL-12 p40, IL-10, IL-1β, TNFα, MCP-1 (Monocyte chemoattractant protein-1) and IL-6 levels were determined by Luminex multiplex bead assay (Bio-rad 6 plex assay). Lower limits of detection for ELISAs were 0.1-0.5 ng/ml and 10-50 pg/ml for Luminex assays.

[3] = test system: PMΦ (peritoneal macrophages); assay: Macrophage chemotaxis assay (modified Boyden chamber); assay type: cell-based, mouse; conditions: for Macrophage chemotactic activity: migration over 4 h, compared with C140 and RANTES 25 ng/ml; for Concentration of maximal macrophage migration: tested 1 pM-100 nM
Procedure: PMθ (0.5×10^6) were allowed to migrate towards chemoattractant (Chemerin140 or Chemerin peptides) in the bottom well of a modified Boyden chamber over 4 h. Filters were fixed in 4% formalin, then migrated cell nuclei were stained with DAPI and visualised. Serum free media (SFM) were used as a negative control and the macrophage chemoattractant RANTES (25 ng/ml; 3 nM) as a positive control. The graphs indicate mean Migration Index (Chemoattractant % threshold area/SFM % threshold area)±SEM for each treatment group (n=5-6). p<0.001 ***; p<0.01 **; p<0.05 * relative to SFM treated wells.
PMθ were recruited following a 4 day peritoneal stimulation with BioGEL beads. Peritoneal cavities of male C57B16/J mice were lavaged with 5 ml PBS-2 mM EDTA. Cells were centrifuged and resuspended in RPMI supplemented with 0.5% BSA and 25 mM Hepes. Cells (0.5×10^6) were allowed to migrate towards chemoattractant (C140, C17m or C17m+C140) in the bottom well over 4 h. Filters were fixed in 4% formalin, then nuclei were stained with DAPI and visualised. Serum free media was used as a negative control (−/−). Cells were preincubated with Pertussis toxin (PTX) for 30 mins before the chemotaxis assay. The bar graphs in FIG. 11 show the mean Migration Index±SEM for each treatment group. Each bar represents at least triplicate wells and at least 3 pictures taken per treatment. p<0.001 ***; p<0.01 **; p<0.05 * relative to SFM treated wells unless otherwise stated.
Cell migration was assessed by use of transwell membranes (ChemoTX, 6-mm diameter, 8-μm pore size). Briefly, BioGEL-elicited cells were harvested and placed on transwell membranes (250 000 cells/membrane in RPMI supplemented with 25 mM Hepes and 0.1% bovine serum albumin. Cells were allowed to migrate toward Chemerin peptides (1 pM-100 nM) for 4 h. Signal transduction via G protein-coupled receptors was blocked by preincubating cells with pertussis toxin (PTX, 200 ng/ml, Sigma-Aldrich) for 30 mins before placing cells on transwell membranes. Migrated cells on the underside of membranes were fixed (3% formaldehyde) and stained with DAPI. Migration was quantified as total pixel count of DAPI stained nuclei under the confocal microscope (2 photos/membrane and a minimum of 3 replicate wells per treatment). Images were analyzed using Metamorph Offline software to determine percentage threshold areas (TA) occupied by migrated cells. Migration indices were obtained by dividing treatment TA by serum-free media TA. For secondary chemotaxis assays ChemoTx 3-mm diameter, 8-μm pore membranes were used with 50 000 cells/membrane.

[4] = C13m 100 pM, C15m 1 pM, C17m 1 pM, pre-treatment 1 h then LPS/IFNγ 15 h

Compound	Effect of protease inhibitor on chemerin-mediated suppression of MΦ activation (FIG. 1F) [2]	Macrophage chemotactic activity [3]	Percentage inhibition of LPS/IFNγ-induced inflammatory cytokine expression: RANTES [2] [%]	Percentage inhibition of LPS/IFNγ-induced inflammatory cytokine expression: TNFα [2] [%]	Anti-inflammatory activity in the MΦ activation assay [2]	further results
CCCCC/C=C\C[C@@H](O)/C=C/C=C/C=C\[C@@H](O)CCCC(=O)O [LTB4, leukotriene B4]	–	–	–	–	–	Potency of comparison mediators [1]: 10^−11 M
CC(=O)N[C@@H](CC(C)C)C(=O)N[C@@H](CC(C)C)C(=O)N[C@H](C=O)CCCNC(=N)N [Leupeptin, reference compound]	abolished its anti-inflammatory effects	–	–	–	–	–
Cl.NCCc1ccc(S(=O)(=O)F)cc1 [Pefabloc, reference compound]	exerted no effect	–	–	–	–	–
CC(C)CC(=O)N[C@H](C(=O)N[C@H](C(=O)N[C@@H](CC(C)C)[C@@H](O)CC(=O)N[C@@H](C)C(=O)N[C@@H](CC(C)C)[C@@H](O)CC(=O)O)C(C)C)C(C)C [Pepstatin A, reference compound] (Isovaleryl-VV[Sta]A[Sta]-OH)	exerted no effect	–	–	–	–	–
O=C(NC(Cc1ccccc1)C(=O)NC(Cc1ccccc1)C(=O)CF)OCc1ccccc1 (stereo not drawn) [Z-FF-FMK, reference compound] (Cbz-Phe-Phe-CH2F; configuration not given here)	independent of cathepsin L	–	–	–	–	–
CC(C)C[C@H](NC(=O)[C@H](Cc1ccccc1)NC(=O)OCc1ccccc1)C(=O)C=O [Z-FL-COCHO, reference compound]	dependent upon calpains and cathepsin S	–	–	–	–	–
CCCC[C@@H](C=O)NC(=O)[C@H](CC(C)C)NC(=O)OCc1ccccc1 [calpeptin, reference compound]	dependent upon calpains	–	–	–	–	–
CSCC[C@H](NC=O)C(=O)N[C@@H](CC(C)C)C(=O)N[C@@H](Cc1ccccc1)C(=O)O [fMLP, formyl-Methionyl-Leucyl-Phenylalanine]	–	–	–	–	–	Potency of comparison mediators [1]: 10^−11 M
AQAGEDPHGYFLPGQFAFS (listed as Mus sp.) [C19]	–	no chemotactic activity	41	21	–	Optimal dose (maximal response) for suppression of LPS/IFNγ-induced cytokine expression [2]: 100 pM
ELSETQRRSLQVALEEFHK (listed as Mus sp.) [N19, N-terminal peptide E23-K41]	–	–	0	0	devoid of anti-inflammatory activity	–
FSRALRTK (listed as Mus sp.) [C8, 8 aa peptide removed during prochemerin cleavage, reference compound]	–	incapable of inducing MΦ migration	0	0	no detectable anti-inflammatory activity	–
KPECTIKPNGRRRKCLACIK (listed as Mus sp.) [M20, midstream peptide K86-K105]	–	–	0	0	devoid of anti-inflammatory activity	–
PHGYFLPGQFA (listed as Mus sp.) [C11]	–	little chemotactic activity	0	0	devoid of anti-inflammatory activity	Concentration of maximal macrophage migration [3]: 10 nM
PHGYFLPGQFAFS (listed as Mus sp.) [C13]	–	little chemotactic activity	32	10	–	Concentration of maximal macrophage migration [3]: 10 nM; Suppression of LPS/IFNγ-induced RANTES secretion (FIG. 2B) [2, 4]: 32%; Suppression of LPS/IFNγ-induced TNFα expression (FIG. 2B) [2, 4]: 10%; Optimal dose (maximal response) for suppression of LPS/IFNγ-induced cytokine expression [2]: 100 pM
RALRTK (listed as Mus sp.) [C6, 6 aa peptide removed during prochemerin cleavage, reference compound]	–	incapable of inducing MΦ migration	0	0	no detectable anti-inflammatory activity	–
TNFα	–	–	–	–	–	Potency of comparison mediators [1]: 10^−11 M
